“Also recorded” adds a separate entry of the source. A value given as a limit tells only on which side of the number the result lay.

The values below come from US20170081698A1, “SURVIVAL ASSAYS FOR METAKARYOTIC STEM CELLS” (priority 2014, published 2017).

For assay [1], the system named is HT-29 cells. Briefly: Survival assay counting large colonies of HT-29 cells plated as single cells in T-flasks, with replating of surviving colonies. The assay is classed as cell-based, human. The conditions noted are these: for nature of surviving colonies (metakaryotic cells, growth upon passaging): HT-29, appropriate concentrations and durations of exposure; for treatment level above which large colonies did not contain metakaryotic cells and did not grow further upon replating (mortal colonies): HT-29, concentration x duration of exposure; for stem cell number, by fraction of treated cells giving large, growing immortal colonies: HT-29 and CAPAN-1 lines; for exposure period required to assure killing greater than 99% of metakaryotic stem cells: HT-29 or CAPAN-1 cell cultures, certain concentrations; for number of immortal colonies: HT-29 cultures; for sensitivity of eukaryotic cells relative to metakaryotes to killing: cultures of cells derived from human tumors; for applicants' interpretation of selectivity (metakaryotic stem cells versus eukaryotic cells): HT-29 cell population. From the text: Large colonies visible to the eye and containing approximately 250 or more cells are enumerated manually or by an electronic colony counter adjusted to recognize colonies of these sizes.
As a practical tactic, the total number of large colonies (>250 cells) are counted and the number appearing on […] to untreated plates identifies the treatment as having killed either or both colonies arising from eukaryotic non-stem cells or from metakaryotic stem cells.
The assay, in one embodiment, involved plating single cells from an exponentially growing HT-29 cell culture in plastic T-flasks and counting the large colonies apparent five weeks after plating. Untreated control flasks provided the total number of immortal colonies and larger mortal colonies.

The test system of assay [2] is HT-29 cells. Put plainly: Microscopic cytology of bell shaped metakaryotic nuclei in treated HT-29 cells (Hoechst, DAPI, Feulgen staining). In kind it is cell-based, human. As to conditions: for aspect of bell shaped nuclei of metakaryotic colonies at the end of treatment: HT-29 colony assay flasks; for condensation of chromatin in bell shaped metakaryotic nuclei: HT-29 cultures.

The test system of another assay is Capan-1 cells. Briefly: Microscopic cytology of bell shaped metakaryotic nuclei in treated Capan-1 cells. The conditions noted are these: Capan-1, equal to or greater than 10 micromolar for about one or more weeks.
Setting [3] is: HT-29, 10 micromolar for 24 hours beginning 24 hours after seeding.

In the case of `CN(C)C(=N)N=C(N)N` [metformin], in the assay with HT-29 cells [1] (HT-29, 100, 200 and 400 micromolar, five weeks), the “further growth of remaining colonies upon trypsinized transfer” value is given as “do not demonstrate further growth”. Also, in the assay with HT-29 cells [1], the “nature of surviving colonies (metakaryotic cells, growth upon passaging)” value (“nature of surviving colonies” below) is given as “did not contain discernable metakaryotic cells nor were they capable of continued growth upon passaging”; the “treatment level above which large colonies did not contain metakaryotic cells and did not grow further upon replating (mortal colonies)” value is on record as over 200 micromolar weeks; the “stem cell number, by fraction of treated cells giving large, growing immortal colonies” value (from here on “stem cell number, by fraction”) is given as “reduction of stem cell number”; the “exposure period required to assure killing greater than 99% of metakaryotic stem cells” value is “not less than six”. The “further decrease in total large colony count” value in the assay on HT-29 cells [1] (HT-29, treatment range ~200 to 2000 micromolar weeks) is given as “No further significant decrease”. Also, in the assay on HT-29 cells [1] (HT-29, ~1000 cells per flask, treatment levels from zero to ~100 micromolar weeks), the “reduction of the total number of large colonies” value (“reduction” below) is listed as “about 10%”. The “nuclear chromatin condensation in metakaryotic versus eukaryotic cell nuclei” value with HT-29 cells [2] (200-2000 micromolar-weeks) is “metakaryotic but not eukaryotic cell nuclei display nuclear chromatin condensation”. For the same compound, in the assay on HT-29 cells [2], the “aspect of bell shaped nuclei of metakaryotic colonies at the end of treatment” value was “displayed recognizable deformed aspects”.

For the compound `COc1ccc2cc([C@H](C)C(=O)O)ccc2c1` [naproxen], the “number of immortal colonies” value with HT-29 cells [1] was “reduce the number of immortal colonies”.

Take `C[C@H]1c2cccc(O)c2C(=O)C2=C(O)[C@]3(O)C(=O)C(C(N)=O)=C(O)[C@@H](N(C)C)[C@@H]3[C@@H](O)[C@@H]21` [doxycycline]: the “treatment level above which large colonies did not contain metakaryotic cells and did not grow further upon replating (mortal colonies)” value with HT-29 cells [1] is on record as “higher than 4 micromolar weeks”. Besides, the “reduction” value with HT-29 cells [1] (HT-29, two weeks beginning one day after transfer, zero to ~10 micromolar) was “about 8%”.

In the case of `O=C(O)CCCc1ccc(N(CCCl)CCCl)cc1` [chlorambucil], in the assay on HT-29 cells [1] (HT-29, ~3000 cells per flask, one day exposure, greater than ~10 micromolar), the surviving large colonies entry is “reduced the surviving large colonies monotonically to zero without displaying a plateau”. Also, the “sensitivity of eukaryotic cells relative to metakaryotes to killing” value in the assay on HT-29 cells [1] is recorded as “markedly more sensitive”.

In the case of `O=c1[nH]c(=O)n([C@H]2C[C@H](O)[C@@H](CO)O2)cc1C(F)(F)F` [trifluorothymidine], in the assay on HT-29 cells [1] (setting [3]), the “effect on eukaryotic cells” value is on record as “kills nearly all eukaryotic cells” and the “effect on survival of metakaryotic cells” value is given as “no detectable effect”. Also, the “nature of surviving large colonies (metakaryotic cells, growth upon replating)” value in the assay on HT-29 cells [1] (HT-29, 24 hour exposure, ~7 to 17 micromolar) was “immortal and displayed visible metakaryotic cells by the 64 cell colony forming stage; also recorded: contained metakaryotic cells and grew continuously upon replating; also recorded: contained metakaryotic cells upon microscopic inspection and demonstrated the ability to grow continuously upon passaging”. In the assay on HT-29 cells [1], the “applicants' interpretation of selectivity (metakaryotic stem cells versus eukaryotic cells)” value is “exterminated the eukaryotic cells in the HT-29 cell population studied but was not toxic to the metakaryotic stem cells” and the “sensitivity of eukaryotic cells relative to metakaryotes to killing” value is “markedly more sensitive”.

Consider `COc1ccc(CCN(C)CCCC(C#N)(c2ccc(OC)c(OC)c2)C(C)C)cc1OC` (stereo not drawn) [verapamil], for which, in the assay with HT-29 cells [1], the “nature of surviving colonies” value was “did not contain discernable metakaryotic cells nor were they capable of continued growth upon passaging”; the “stem cell number, by fraction” value is on record as “reduction of stem cell number”; the “exposure period required to assure killing greater than 99% of metakaryotic stem cells” value was “not less than six”. Further, the “nuclei of metakaryotic stem cells” value in the assay with Capan-1 cells was “pyknotic nuclei”. In the assay on HT-29 cells [2] (HT-29, about one or more weeks of treatment), the “fluorescent structures in the cytoplasmic organelle of metakaryotic cells (dsDNA dyes Hoechst, DAPI)” value was “novel large bar structure; also recorded: bright blue fluorescent bars, crosses and more complex figures are observed”. For the same compound, the “chromatin in bell shaped nuclei after Feulgen staining” value with HT-29 cells [2] (HT-29, e.g. 10 micromolar for about one or more weeks) is reported as “condensed into rope like structures”. Further, the “pyknotic bell shaped nuclei with condensed chromatin” value in the assay with HT-29 cells [2] (HT-29 and CAPAN-1 cell cultures) is “dead (pyknotic) bell shaped metakaryotic cell nuclei; also recorded: pyknotic structures with bell shaped nuclei displaying grossly condensed chromatin structures”. Moreover, the “condensation of chromatin in bell shaped metakaryotic nuclei” value (“condensation of chromatin” below) in the assay with HT-29 cells [2] is recorded as “observed”.

As to `CC[C@]1(O)C[C@@H]2CN(CCc3c([nH]c4ccccc34)[C@@](C(=O)OC)(c3cc4c(cc3OC)N(C)[C@H]3[C@@](O)(C(=O)OC)[C@H](OC(C)=O)[C@]5(CC)C=CCN6CC[C@]43[C@@H]65)C2)C1` [vinblastine], the “sensitivity of eukaryotic cells relative to metakaryotes to killing” value in the assay on HT-29 cells [1] is recorded as “markedly more sensitive”.

For `COc1cc2c(c(OC)c1OC)-c1ccc(OC)c(=O)cc1[C@@H](NC(C)=O)CC2` [colchicine], in the assay on HT-29 cells [1], the “sensitivity of eukaryotic cells relative to metakaryotes to killing” value is “markedly more sensitive”.

In the case of `CC(C)Cc1ccc(C(C)C(=O)O)cc1` (stereo not drawn) [ibuprofen], in the assay with HT-29 cells [1], the “number of immortal colonies” value is listed as “reduce the number of immortal colonies”. In addition, the “condensation of chromatin” value with HT-29 cells [2] is recorded as “do not induce the condensation of chromatin”.

With `Cc1ccc(-c2cc(C(F)(F)F)nn2-c2ccc(S(N)(=O)=O)cc2)cc1` [Celecoxib], the “treatment level above which large colonies did not contain metakaryotic cells and did not grow further upon replating (mortal colonies)” value in the assay with HT-29 cells [1] is “higher than 10 micromolar weeks”. The “reduction” value in the assay with HT-29 cells [1] (HT-29, two weeks beginning one day after transfer, ~2 to ~32 micromolar) was “about 10%”.

Take `CC(=O)Nc1ccc(O)cc1` [acetaminophen]: in the assay on HT-29 cells [1], the “nature of surviving colonies” value is reported as “did not contain discernable metakaryotic cells nor were they capable of continued growth upon passaging”; the “treatment level above which large colonies did not contain metakaryotic cells and did not grow further upon replating (mortal colonies)” value was “higher than 10 micromolar weeks”; the “stem cell number, by fraction” value is given as “reduction of stem cell number”; the “applicants' interpretation of selectivity (metakaryotic stem cells versus eukaryotic cells)” value is recorded as “exterminated the metakaryotic stem cells but were not cytotoxic to the eukaryotic non-stem cells”. The “number of immortal colonies” value in the assay with HT-29 cells [1] is “reduce the number of immortal colonies”. In addition, the “reduction” value with HT-29 cells [1] (HT-29, two weeks beginning one day after transfer, ~5 to ~25 micromolar) is recorded as “about 10%”. Besides, the “effect of higher concentrations on cells” value in the assay with HT-29 cells [1] (HT-29, two weeks, concentrations higher than the range of the figure) is recorded as “killed all cells”. Also, in the assay with HT-29 cells [2], the “aspect of bell shaped nuclei of metakaryotic colonies at the end of treatment” value is listed as “did not display recognizable deformed pyknotic aspects” and the “condensation of chromatin” value was “do not induce the condensation of chromatin”.
